Data from US11028090B2 (Dong Wha Pharm. Co., Ltd., priority 2017, dated 2021).
pIC50: −log10 of the molar value. Like-named read-outs stand apart in the source and are kept apart here.

Columns and labels:
[1] = molecular target: BRD4 (BD1+BD2) bromodomain (Homo sapiens (Human), UniProt O60885); experiment: BRD4 binding inhibition (AlphaScreen, GST-BRD4 vs tetraacetylated histone H4 peptide)
Procedure, shortened: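 GST-BRD4 (BD1+BD2) and biotinylated tetraacetyl-histone H4 peptide, each at 100 nM in HEPES pH 7.4 buffer with BSA and DTT, were combined with compound. Glutathione acceptor and streptavidin donor beads were added, then incubated 30 min at room temperature in the dark. Read-out was AlphaScreen signal.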

[2] = tested on: acute myelogenous leukemia cells (MV-4-11 cells); experiment: Cytotoxicity to acute myelogenous leukemia cells (MV-4-11 cells), CCK-8; conditions: Homo sapiens, MV4-11, 72 h
Method: The following experiment was performed to evaluate the cytotoxicity of [1,2,4]triazolo[4,3-a]quinoxaline derivative according to the present invention to acute myelogenous leukemia cells (MV-4-11 cells).
Acute myelogenous leukemia cells (MV-4-11 cells) were distributed in a 96 well plate at the density of 5×10^3 cells/well. The plated cells were treated with the compounds of the present invention dissolved in DMSO at the different concentrations ranging from 0.01 μM to 10 μM. 72 hours later, the activities of the compounds were determined using CCK-8 reagent.

[3] = GST-BRD4 (BD1+BD2) / biotinylated acetyl-histone H4 (Lys5,8,12,16) peptide, read-out: IC50, BRD4 binding inhibition
[4] = GST-BRD4 (BD1+BD2) vs biotinylated acetyl-histone H4 peptide, AlphaScreen, read-out: BRD4 IC50
[5] = read-out: MV-4-11 Cytotoxicity IC50
[6] = read-out: IC50, cytotoxicity against acute myelogenous leukemia cells

Compound | pIC50 [1, 3] | pIC50 [1, 4] | pIC50 [2, 5] | pIC50 [2, 6]
COCCOc1ccc2c(c1)nc(NCCCCNC(=O)NC(C)C)c1nnc(C)n12 [Example 422, 1-isopropyl-3-{4-[7-(2-methoxy-ethoxy)-1-methyl-[1,2,4]triazolo[4,3-a]quinoxaline-4-ylamino]-butyl}-urea] | ≥ 8.00 | 8.52 | 6.35 | 
COCCOc1ccc2c(c1)nc(NCCCCNC(=O)NC1CCCCC1)c1nnc(C)n12 [Example 426, 1-cyclohexyl-3-{4-[7-(2-methoxy-ethoxy)-1-methyl-[1,2,4]triazolo[4,3-a]quinoxaline-4-ylamino]-butyl}-urea] | ≥ 7.30 | 7.77 | 6.72 | ≥ 6.70
CCOc1ccc2c(c1)nc(NCCCCNC(=O)OC(C)(C)C)c1nnc(C)n12 [Example 440, [4-(7-ethoxy-1-methyl-[1,2,4]triazolo[4,3-a]quinoxaline-4-ylamino)-butyl]-carbamic acid-tert-butylester] | ≥ 8.00 | 8.05 | 6.24 | 
CCOc1ccc2c(c1)nc(NCCCCNC(=O)OC(C)C)c1nnc(C)n12 [Example 443, [4-(7-ethoxy-1-methyl-[1,2,4]triazolo[4,3-a]quinoxaline-4-ylamino)-butyl]-carbamic acid isopropylester] | ≥ 7.30 | 7.89 | 6.92 | ≥ 6.70
CCOc1ccc2c(c1)nc(NCCCCNC(=O)OCC(C)C)c1nnc(C)n12 [Example 444, [4-(7-ethoxy-1-methyl-[1,2,4]triazolo[4,3-a]quinoxaline-4-ylamino)-butyl]-carbamic acid isobutylester] | ≥ 8.00 | 8.00 | 6.92 | ≥ 6.70
CCOc1ccc2c(c1)nc(NCCCCNC(=O)OC1CCCC1)c1nnc(C)n12 [Example 445, [4-(7-ethoxy-1-methyl-[1,2,4]triazolo[4,3-a]quinoxaline-4-ylamino)-butyl]-carbamic acid cyclopentylester] | ≥ 7.30 | 7.89 | 7.00 | ≥ 6.70
CCOc1ccc2c(c1)nc(NCCCCNC(=O)Cc1cccs1)c1nnc(C)n12 [Example 446, N-[4-(7-ethoxy-1-methyl-[1,2,4]triazolo[4,3-a]quinoxaline-4-ylamino)-butyl]-2-thiophene-2-yl-acetamide] | ≥ 7.30 | 7.92 | 8.00 | ≥ 6.70
Cc1nnc2c(NCCCCNC(=O)CC(C)C)nc3cc(OC(C)C)ccc3n12 [Example 449, N-[-(7-isopropoxy-1-methyl-[1,2,4]triazolo[4,3-a]quinoxaline-4-ylamino)-butyl]-3-methyl-butyramide] | ≥ 7.30 | 7.57 | 6.52 | 
CCC(C)C(=O)NCCCCNc1nc2cc(OC(C)C)ccc2n2c(C)nnc12 (stereo not shown) [Example 450, N-[4-(7-isopropoxy-1-methyl-[1,2,4]triazolo[4,3-a]quinoxaline-4-ylamino)-butyl]-2-methyl-butyramide] | ≥ 7.30 | 7.72 | 6.57 | 
Cc1nnc2c(NCCCCNC(=O)Cc3cccs3)nc3cc(OC(C)C)ccc3n12 [Example 451, N-[4-(7-isopropoxy-1-methyl-[1,2,4]triazolo[4,3-a]quinoxaline-4-ylamino)-butyl]-2-thiophene-2-yl-acetamide] | ≥ 7.30 | 7.89 | 7.62 | ≥ 6.70
Cc1nnc2c(NCCCCNC(=O)OC3CCCC3)nc3cc(OC(C)C)ccc3n12 [Example 453, [4-(7-isopropoxy-1-methyl-[1,2,4]triazolo[4,3-a]quinoxaline-4-ylamino)-butyl]-carbamic acid cyclopentyl ester] | ≥ 7.30 | 7.62 | 6.30 | 
Cc1nnc2c(NCCCCNC(=O)c3ccccc3Cl)nc3cc(OC(C)C)ccc3n12 [Example 454, 2-chloro-N-[4-(7-isopropoxy-1-methyl-[1,2,4]triazolo[4,3-a]quinoxaline-4-ylamino)-butyl]-benzamide] | ≥ 7.30 | 7.96 | 7.10 | ≥ 6.70
COc1cc(C)c2c(c1)nc(NCCCCNC(=O)CC(C)C)c1nnc(C)n12 [Example 458, [4-(7-methoxy-1,9-dimethyl-[1,2,4]triazolo[4,3-a]quinoxaline-4-ylamino)-butyl]-3-methyl-butyramide] | ≥ 8.00 |  | 6.28 | 
COc1ccc2c(nc(NCCCCNC(=O)CC(C)C)c3nnc(C)n32)c1Cl [Example 461, [4-(6-chloro-7-methoxy-1-methyl-[1,2,4]triazolo[4,3-a]quinoxaline-4-ylamino)-butyl]-3-methyl-butyramide] | ≥ 7.30 |  | 6.60 | 
COc1ccc2c(nc(NCCCCNC(=O)OCC(C)C)c3nnc(C)n32)c1Cl [Example 462, [4-(6-chloro-7-methoxy-1-methyl-[1,2,4]triazolo[4,3-a]quinoxaline-4-ylamino)-butyl]-carbamic acid isobutylester] | ≥ 7.30 |  | 6.22 | 
COc1ccc2c(nc(NCCCCNC(=O)Cc3cccs3)c3nnc(C)n32)c1Cl [Example 463, N-[4-(6-chloro-7-methoxy-1-methyl-[1,2,4]triazolo[4,3-a]quinoxaline-4-ylamino)-butyl]-2-thiophene-2-yl-acetamide] | ≥ 7.30 |  | 7.00 | ≥ 6.70
COc1cc2nc(NCCCCN)c3nnc(C)n3c2cc1C [Example 465, N^1-(7-methoxy-1,8-dimethyl-[1,2,4]triazolo[4,3-a]quinoxaline-4-yl)-butane-1,4-diamine ditrifluoroacetic acid] |  | 7.14 | 6.16 | 
COc1cc2nc(NCCCCNC(=O)c3ccccc3Cl)c3nnc(C)n3c2cc1C [Example 470] |  | 7.20 | 6.66 | 
COc1cc2nc(NCCCCNC(=O)CC(C)C)c3nnc(C)n3c2cc1C(F)(F)F [Example 476, N-[4-(7-methoxy-1-methyl-8-trifluoromethyl-[1,2,4]triazolo[4,3-a]quinoxaline-4-ylamino)-butyl]-3-methyl-butyramide] | ≥ 7.30 | 7.47 | 6.32 | 

More lines, main results first:

pIC50 [1, 3] | pIC50 [1, 4] | Compound | pIC50 [2, 5] | pIC50 [2, 6]
≥ 7.30 | 7.66 | Cc1nnc2c(NCCCCNC(=O)OC(C)(C)C)nc3cc(OCCN4CCOCC4)ccc3n12 [Example 430, {4-[1-methyl-7-(2-morpholine-4-yl-ethoxy)-[1,2,4]triazolo[4,3-a]quinoxaline-4-ylamino]-butyl}-carbamic acid-tert-butylester] | 6.22 | 
≥ 7.30 | 7.30 | Cc1nnc2c(NCCCCNC(=O)CC(C)C)nc3cc(OCCN4CCOCC4)ccc3n12 [Example 432, 3-methyl-N-{4-[1-methyl-7-(2-morpholine-4-yl-ethoxy)-[1,2,4]triazolo[4,3-a]quinoxaline-4-ylamino]-butyl}-butyramide] | 7.00 | ≥ 6.70
 | 7.21 | Cc1nnc2c(NCCCCNC(=O)C(C)(C)C)nc3cc(OCCN4CCOCC4)ccc3n12 [Example 433, 2,2-dimethyl-N-{4-[1-methyl-7-(2-morpholine-4-yl-ethoxy)-[1,2,4]triazolo[4,3-a]quinoxaline-4-ylamino]-butyl}-propionamide] | 6.47 | 
≥ 8.00 | 8.10 | Cc1nnc2c(NCCCCNC(=O)[C@@H](O)C(C)C)nc3cc(OCCN4CCOCC4)ccc3n12 [Example 435, 2-(S)-hydroxy-N-{4-[7-(2-morpholine-4-yl-ethoxy)-1-methyl-[1,2,4]triazolo[4,3-a]quinoxaline-4-ylamino]-butyl}-3-methyl-butyramide] | 6.96 | 
≥ 7.30 | 7.74 | Cc1nnc2c(NCCCCNC(=O)OC(C)C)nc3cc(OCCN4CCOCC4)ccc3n12 [Example 436, {4-[1-methyl-7-(2-morpholine-4-yl-ethoxy)-[1,2,4]triazolo[4,3-a]quinoxaline-4-ylamino]-butyl}-carbamic acid isopropylester] | 6.80 | ≥ 6.70
≥ 7.30 | 7.51 | Cc1nnc2c(NCCCCNC(=O)OC3CCCC3)nc3cc(OCCN4CCOCC4)ccc3n12 [Example 437, {4-[1-methyl-7-(2-morpholine-4-yl-ethoxy)-[1,2,4]triazolo[4,3-a]quinoxaline-4-ylamino]-butyl}-carbamic acid cyclopentylester] | 7.15 | ≥ 6.70
≥ 7.30 | 7.43 | Cc1nnc2c(NCCCCNC(=O)Cc3cccs3)nc3cc(OCCN4CCOCC4)ccc3n12 [Example 438, N-{4-[1-methyl-7-(2-morpholine-4-yl-ethoxy)-[1,2,4]triazolo[4,3-a]quinoxaline-4-ylamino]-butyl}-2-thiophene-2-yl-acetamide] | 7.48 | ≥ 6.70
≥ 7.30 | 7.42 | Cc1nnc2c(NCCCCNC(=O)c3ccccc3Cl)nc3cc(OCCN4CCOCC4)ccc3n12 [Example 439, 2-chloro-N-{4-[1-methyl-7-(2-morpholine-4-yl-ethoxy)-[1,2,4]triazolo[4,3-a]quinoxaline-4-ylamino]-butyl}-benzamide] | 7.00 | ≥ 6.70
≥ 7.30 | 7.80 | CCOc1ccc2c(c1)nc(NCCCCNC(=O)CC(C)C)c1nnc(C)n12 [Example 442, N-[4-(7-ethoxy-1-methyl-[1,2,4]triazolo[4,3-a]quinoxaline-4-ylamino)-butyl]-3-methyl-butyramide] | 6.96 | ≥ 6.70
